Source: BindingDB's records for doi:10.1021/jm970682+ (University of Louvain, 1998)

Key:
[1] = The compound was tested for the affinity on sigma 1 receptor using [3H]- pentazocine as radioligand
[2] = as above; remark: listed apart in the source

Row | SMILES | Ki [1] | Ki [2]
1 | CCC(=O)c1ccc2c(c1)sc(=O)n2C(=O)CC [3,6-Dipropionyl-3H-benzothiazol-2-one] | 63 nM | 
2 | CCCCC(=O)c1ccc2c(c1)sc(=O)n2CCN(C)C [3-(2-Dimethylamino-ethyl)-6-pentanoyl-3H-benzothiazol-2-one] |  | 628 nM
3 | CCC(=O)c1ccc2c(c1)oc(=O)n2CCN1CCCCC1 [3-(2-Piperidin-1-yl-ethyl)-6-propionyl-3H-benzooxazol-2-one] |  | 72 nM
4 | CCC(=O)c1ccc2c(c1)sc(=O)n2CCN1CCCCC1 [3-(2-Piperidin-1-yl-ethyl)-6-propionyl-3H-benzothiazol-2-one] |  | 47 nM
5 | CCCc1ccc2c(c1)sc(=O)n2CCN1CCCCC1 [3-(2-Piperidin-1-yl-ethyl)-6-propyl-3H-benzothiazol-2-one] |  | 0.6 nM
6 | CN(C)CCn1c(=O)oc2cc(C(=O)c3ccccc3)ccc21 [6-Benzoyl-3-(2-dimethylamino-ethyl)-3H-benzooxazol-2-one] |  | 365 nM
7 | O=C(c1ccccc1)c1ccc2c(c1)sc(=O)n2CCN1CCCC1 [6-Benzoyl-3-(2-pyrrolidin-1-yl-ethyl)-3H-benzothiazol-2-one] |  | 54 nM
8 | O=c1oc2cc(Cc3ccccc3)ccc2n1CCN1CCOCC1 [6-Benzyl-3-(2-morpholin-4-yl-ethyl)-3H-benzooxazol-2-one] |  | 72 nM
9 | CCC(=O)c1ccc2c(c1)sc(=O)n2CCN1CCCC1 [6-Propionyl-3-(2-pyrrolidin-1-yl-ethyl)-3H-benzothiazol-2-one] |  | 571 nM
